How the values were obtained:
Type in all cases: cell-based
[1] = molecular target: T1, F508del-CFTR (Homo sapiens, UniProt P13569, DEL508-508); experiment: Dose response, potentiation of forskolin-activated F508del-CFTR chloride channel activity in CFBE41o- cells (fluorescence membrane potential assay); conditions: low temperature (27 degrees Celsius) correction, read-out: potency in potentiating cyclic AMP dependent F508del-CFTR chloride channel activity
T1 construct: F508del-CFTR was endogenously expressed in CFBE41o^− cells; endogenous in cells; host or cells: CFBE41o-
T1 sequence (P13569 with tags, fused parts or gaps DEL508-508): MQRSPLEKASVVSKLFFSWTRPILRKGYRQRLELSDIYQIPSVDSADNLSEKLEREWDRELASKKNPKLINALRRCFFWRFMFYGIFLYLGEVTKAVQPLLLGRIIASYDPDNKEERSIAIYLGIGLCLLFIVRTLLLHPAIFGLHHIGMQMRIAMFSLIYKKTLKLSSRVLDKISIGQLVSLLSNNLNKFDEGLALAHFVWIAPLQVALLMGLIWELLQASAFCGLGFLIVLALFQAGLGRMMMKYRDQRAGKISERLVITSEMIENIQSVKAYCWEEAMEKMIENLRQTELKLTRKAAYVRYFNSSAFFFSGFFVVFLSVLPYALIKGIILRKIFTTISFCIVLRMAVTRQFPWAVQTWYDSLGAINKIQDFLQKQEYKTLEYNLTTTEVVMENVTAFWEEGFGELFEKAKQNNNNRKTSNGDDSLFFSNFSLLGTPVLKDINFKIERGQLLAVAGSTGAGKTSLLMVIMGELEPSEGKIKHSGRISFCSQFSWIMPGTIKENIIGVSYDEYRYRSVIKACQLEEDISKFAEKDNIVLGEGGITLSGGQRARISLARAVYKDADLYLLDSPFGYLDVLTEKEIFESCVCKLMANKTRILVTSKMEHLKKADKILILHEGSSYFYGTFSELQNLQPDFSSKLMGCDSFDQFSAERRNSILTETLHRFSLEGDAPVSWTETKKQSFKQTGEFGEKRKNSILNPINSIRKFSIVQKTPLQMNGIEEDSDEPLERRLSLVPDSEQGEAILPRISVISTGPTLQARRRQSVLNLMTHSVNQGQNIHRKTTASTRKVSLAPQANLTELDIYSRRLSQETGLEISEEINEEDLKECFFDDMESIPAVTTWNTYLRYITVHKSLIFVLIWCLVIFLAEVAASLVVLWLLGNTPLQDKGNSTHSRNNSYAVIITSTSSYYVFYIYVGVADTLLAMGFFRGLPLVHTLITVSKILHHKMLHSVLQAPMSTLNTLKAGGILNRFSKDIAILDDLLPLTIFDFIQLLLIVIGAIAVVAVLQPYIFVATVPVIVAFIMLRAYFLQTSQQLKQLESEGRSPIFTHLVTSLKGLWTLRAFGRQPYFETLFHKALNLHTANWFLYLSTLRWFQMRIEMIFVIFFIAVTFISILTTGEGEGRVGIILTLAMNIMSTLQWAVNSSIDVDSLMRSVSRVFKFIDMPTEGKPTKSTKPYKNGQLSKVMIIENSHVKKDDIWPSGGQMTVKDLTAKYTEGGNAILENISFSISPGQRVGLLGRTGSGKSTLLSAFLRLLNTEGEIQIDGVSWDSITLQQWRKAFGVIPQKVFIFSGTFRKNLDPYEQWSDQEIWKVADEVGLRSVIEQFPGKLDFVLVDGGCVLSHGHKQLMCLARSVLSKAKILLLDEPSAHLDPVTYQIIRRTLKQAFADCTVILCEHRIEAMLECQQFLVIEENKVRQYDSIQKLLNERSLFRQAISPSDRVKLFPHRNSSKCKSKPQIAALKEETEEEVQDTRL
Protocol: In these studies, F508del-CFTR was endogenously expressed in CFBE41o^− cells and it's trafficking defect corrected by low temperature (27 degrees Celsius) incubation. The fold increase in cyclic AMP dependent F508del-CFTR mediated chloride channel activity induced by potentiator treatment was determined using the fluorescence-based, membrane potential difference assay previously described.

[2] = molecular target: T2, Wt-CFTR (Homo sapiens, UniProt P13569); experiment: Ussing chamber short circuit current, primary human bronchial epithelial cultures; conditions: 1 μM, after forskolin 100 nM
T2 sequence (P13569 whole entry): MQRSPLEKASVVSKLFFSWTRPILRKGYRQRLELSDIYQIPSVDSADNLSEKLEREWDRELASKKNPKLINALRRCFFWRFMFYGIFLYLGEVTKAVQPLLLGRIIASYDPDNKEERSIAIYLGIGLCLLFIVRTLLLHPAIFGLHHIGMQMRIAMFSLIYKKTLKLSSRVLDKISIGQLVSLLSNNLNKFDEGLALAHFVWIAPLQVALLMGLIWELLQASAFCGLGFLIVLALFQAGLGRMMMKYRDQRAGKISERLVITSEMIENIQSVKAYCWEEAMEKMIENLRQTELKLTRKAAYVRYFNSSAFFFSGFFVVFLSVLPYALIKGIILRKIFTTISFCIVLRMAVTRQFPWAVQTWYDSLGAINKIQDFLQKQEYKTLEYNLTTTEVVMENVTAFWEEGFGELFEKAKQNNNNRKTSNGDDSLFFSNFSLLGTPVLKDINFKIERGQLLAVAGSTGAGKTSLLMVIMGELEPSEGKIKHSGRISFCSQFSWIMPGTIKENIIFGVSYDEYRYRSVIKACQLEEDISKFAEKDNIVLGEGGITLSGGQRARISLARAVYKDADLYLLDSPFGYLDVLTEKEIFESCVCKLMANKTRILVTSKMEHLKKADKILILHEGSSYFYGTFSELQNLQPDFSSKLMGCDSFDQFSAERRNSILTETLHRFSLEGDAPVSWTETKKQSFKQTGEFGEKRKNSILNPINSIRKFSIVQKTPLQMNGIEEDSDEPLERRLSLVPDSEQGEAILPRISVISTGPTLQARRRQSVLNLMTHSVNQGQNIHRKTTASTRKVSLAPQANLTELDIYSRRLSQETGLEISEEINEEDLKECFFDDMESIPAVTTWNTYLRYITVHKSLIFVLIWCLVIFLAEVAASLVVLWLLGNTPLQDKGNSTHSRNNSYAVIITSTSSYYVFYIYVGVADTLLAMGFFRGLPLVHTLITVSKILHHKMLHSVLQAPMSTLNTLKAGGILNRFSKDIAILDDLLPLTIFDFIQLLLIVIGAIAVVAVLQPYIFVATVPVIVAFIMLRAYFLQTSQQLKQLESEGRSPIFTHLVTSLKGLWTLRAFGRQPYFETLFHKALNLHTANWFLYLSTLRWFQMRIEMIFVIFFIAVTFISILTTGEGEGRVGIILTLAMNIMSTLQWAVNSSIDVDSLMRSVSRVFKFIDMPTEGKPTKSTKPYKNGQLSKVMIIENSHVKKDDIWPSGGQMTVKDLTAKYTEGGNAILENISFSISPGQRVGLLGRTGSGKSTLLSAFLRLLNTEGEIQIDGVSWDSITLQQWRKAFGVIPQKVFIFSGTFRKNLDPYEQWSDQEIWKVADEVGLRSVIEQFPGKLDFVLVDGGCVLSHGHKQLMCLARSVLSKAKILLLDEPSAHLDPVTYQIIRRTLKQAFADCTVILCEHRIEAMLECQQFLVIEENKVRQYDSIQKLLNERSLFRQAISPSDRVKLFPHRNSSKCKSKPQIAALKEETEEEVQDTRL
Protocol: The impact of SK-POT (compound 11) in potentiating Wt-CFTR mediated transepithelial chloride conduction in primary human bronchial epithelial cultures was then tested.

[3] = molecular target: T3, CFTR (Mustela putorius furo, UniProt Q07E16); experiment: Ussing chamber, primary bronchial epithelial cultures from adult ferret trachea; conditions: 1 μM, after forskolin 100 nM
T3 construct: primary bronchial epithelial cultures prepared from adult ferret trachea; from tissue; host or cells: primary bronchial epithelial cultures from adult ferret trachea
T3 sequence (Q07E16 whole entry): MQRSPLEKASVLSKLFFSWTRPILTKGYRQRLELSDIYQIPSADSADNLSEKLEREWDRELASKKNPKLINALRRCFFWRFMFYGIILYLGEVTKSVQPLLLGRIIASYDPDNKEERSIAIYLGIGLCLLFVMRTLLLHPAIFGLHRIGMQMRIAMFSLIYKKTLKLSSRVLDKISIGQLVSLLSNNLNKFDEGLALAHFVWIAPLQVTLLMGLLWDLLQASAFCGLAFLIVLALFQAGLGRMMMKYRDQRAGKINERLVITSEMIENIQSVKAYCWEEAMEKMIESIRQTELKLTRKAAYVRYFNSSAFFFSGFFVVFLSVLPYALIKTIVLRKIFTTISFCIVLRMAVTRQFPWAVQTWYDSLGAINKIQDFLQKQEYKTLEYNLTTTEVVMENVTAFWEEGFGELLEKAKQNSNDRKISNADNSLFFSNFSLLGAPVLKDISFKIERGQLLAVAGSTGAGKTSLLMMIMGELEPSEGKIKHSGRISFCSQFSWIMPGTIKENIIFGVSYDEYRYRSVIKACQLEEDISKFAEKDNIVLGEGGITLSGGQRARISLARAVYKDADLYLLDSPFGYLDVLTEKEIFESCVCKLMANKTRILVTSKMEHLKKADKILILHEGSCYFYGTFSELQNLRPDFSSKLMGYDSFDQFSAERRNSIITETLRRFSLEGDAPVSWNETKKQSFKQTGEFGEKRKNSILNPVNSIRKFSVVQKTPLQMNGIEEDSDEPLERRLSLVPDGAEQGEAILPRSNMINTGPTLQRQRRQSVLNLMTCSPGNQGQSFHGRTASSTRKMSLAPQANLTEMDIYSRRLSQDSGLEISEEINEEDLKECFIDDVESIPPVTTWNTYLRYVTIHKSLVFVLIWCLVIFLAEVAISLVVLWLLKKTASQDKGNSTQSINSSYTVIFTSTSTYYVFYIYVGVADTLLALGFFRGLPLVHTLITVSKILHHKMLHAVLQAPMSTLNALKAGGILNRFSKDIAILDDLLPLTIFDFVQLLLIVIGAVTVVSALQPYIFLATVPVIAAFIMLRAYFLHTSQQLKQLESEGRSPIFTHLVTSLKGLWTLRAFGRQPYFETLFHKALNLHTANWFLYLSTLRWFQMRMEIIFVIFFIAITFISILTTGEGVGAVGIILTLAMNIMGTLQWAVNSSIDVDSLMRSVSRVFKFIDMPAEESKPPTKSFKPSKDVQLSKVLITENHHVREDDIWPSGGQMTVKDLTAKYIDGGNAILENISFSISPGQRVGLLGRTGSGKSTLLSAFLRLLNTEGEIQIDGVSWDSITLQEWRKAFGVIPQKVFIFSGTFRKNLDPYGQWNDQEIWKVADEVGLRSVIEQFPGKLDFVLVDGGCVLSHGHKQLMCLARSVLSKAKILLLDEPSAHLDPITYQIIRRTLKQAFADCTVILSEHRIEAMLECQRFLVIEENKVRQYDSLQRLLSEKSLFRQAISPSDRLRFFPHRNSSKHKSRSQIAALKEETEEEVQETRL
Protocol: Student's “t” test was conducted.

[4] = molecular target: T2, Wt-CFTR; experiment: Calu-3 CSE experiments, FLiPR assay of CFTR channel activity; parameters: this airway epithelial cell line endogenously expresses this channel; endogenous in cells; host or cells: Calu-3
Protocol: Addition of CFTR-inhibitor indicated with grey arrow. Superimposed, we show the effect of acute co-application of VX-770 (open squares) or SK-POT (open triangles) with forskolin. […] Only SK-POT rescued CFTR channel function in the presence of cigarette smoke extract.
Calu-3 cells were cultured using EMEM (Wisent) supplemented with FBS at 20% (v/v) and 1× Penicillin/Streptomycin (Wisent). Calu-3 cells were seeded on clear-bottom, black-walled 96 well plates (Costar, Corning) at a density of 10,000 cells/well and cultured for 2 days post-confluence. Cells then received the chronic treatment of toxin and potentiator. The toxin treatment consisted of either cigarette smoke extract (CSE) prepared in 100% DMSO (University of Alabama at Birmingham), dissolved at a concentration of 2% (v/v) in Calu-3 medium, with an equivalent concentration of DMSO alone serving as the toxin control. The chronic drug treatment was co-applied with the toxin, which included either VX-770 or Compound 11 (both prepared in 100% DMSO) dissolved in Calu-3 medium at a final concentration of 1 μm. VX-770 (Vertex) and Compound 11 solutions were prepared from 1 mM stocks. The control for the drug treatment was the vehicle, DMSO at an equivalent volume. Combining the two toxin treatments and three drug treatments, a total of six treatments were applied chronically to 4 wells per condition, for a total of 24 wells receiving chronic treatment.
Cells were cultured for an additional 24 hours after chronic treatment application, after which cells were incubated with FLiPR assay buffer. The FLiPR assay buffer consisted of blue FLiPR dye (Molecular Devices) dissolved at a concentration of 0.5 mg/mL in chloride-free buffer (150 mM NMDG, 150 mM gluconolactone, 3 mM potassium gluconate, 300 mOsm and pH 7.38). Buffer was incubated with cells at 37 degrees and 5% CO2 for 35 minutes. CFTR function was assessed by measuring changes in fluorescence activity after acute CFTR channel activation by addition of cAMP agonist forskolin dissolved in chloride-free buffer to a final concentration 1 μm, using the SpectraMax i3x multimodal plate reader. Fluorescence readings (excitation 530 nm; emission 560 nm) for each well were taken at 30-second intervals for 5 minutes (baseline) or 10 minutes (activation). CFTR activity was then terminated by addition of CFTR-inhibitor 172 dissolved in chloride-free buffer to a concentration of 10 μm, to further verify the specificity of the response to CFTR activity. Fluorescence changes were recorded at 30-second intervals for another 10 minutes. In analysis, all fluorescence values were normalized per well to the final reading prior to the addition of forskolin and expressed as a percentage of this reading.

CC(C)(C)c1ccc(-n2nc(-c3ccc(F)cc3)c(N3CCCCC3)c(N)c2=O)cc1O [Compound 11, 4-amino-2-(4-(tert-butyl)-3-hydroxyphenyl)-6-(4-fluorophenyl)-5-(piperidin-1-yl)pyridazin-3(2H)-one]
EC50 [1]: 5 nM | forskolin activated short circuit currents mediated by Wt-CFTR [2]: potentiated | CFTR channel function in ferret bronchial tissue [3]: effective in augmenting CFTR channel function | forskolin-activated CFTR channel activity after CSE exposure ([4]; Calu-3, CSE 2%, compounds 1 uM): significant increase in forskolin-activated CFTR channel activity | EC90 ([4]; Calu-3, CFTR channel potentiation, read-out: approximate EC90): ~1000 nM

Reference: patent US20260055065A1, “PYRIDAZINONE COMPOUNDS WHICH MODULATE MUTANT PROTEINS FOR TREATING RESPIRATORY DISEASES” (The Hospital for Sick Children, priority 2022, published 2026)
